# Measured values as given in PubChem BioAssay (NCI).
#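 Cultured in 96-well plates, cells were exposed to test compound for 48 hours across five concentrations. TGI marks complete inhibition of growth.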
# Columns and labels:
# Assay in all cases: growth of human tumour cells (NCI), 48 h
# IGROV1 ovarian = test system: IGROV1 ovarian
# HCC-2998 colon = test system: HCC-2998 colon
# TK-10 renal = test system: TK-10 renal
# UACC-62 melanoma = test system: UACC-62 melanoma
# BT-549 breast = test system: BT-549 breast
# NCI/ADR-RES ovarian = test system: NCI/ADR-RES ovarian
# SN12C renal = test system: SN12C renal
# UACC-257 melanoma = test system: UACC-257 melanoma
# MCF7 breast = test system: MCF7 breast
# OVCAR-3 ovarian = test system: OVCAR-3 ovarian
# SR leukemia = test system: SR leukemia
# LOX IMVI melanoma = test system: LOX IMVI melanoma
# HOP-92 NSCLC = test system: HOP-92 NSCLC
# MDA-MB-435 = test system: MDA-MB-435
# M14 melanoma = test system: M14 melanoma
# SF-295 CNS = test system: SF-295 CNS
# CCRF-CEM leukemia = test system: CCRF-CEM leukemia
# MDA-N = test system: MDA-N
# NCI-H23 lung = test system: NCI-H23 lung
# T-47D breast = test system: T-47D breast
# SK-OV-3 ovarian = test system: SK-OV-3 ovarian
# CAKI-1 renal = test system: CAKI-1 renal
# SNB-75 CNS = test system: SNB-75 CNS
# KM12 colon = test system: KM12 colon
# 786-0 renal = test system: 786-0 renal
# NCI-H460 lung = test system: NCI-H460 lung
# SK-MEL-2 melanoma = test system: SK-MEL-2 melanoma
# OVCAR-4 ovarian = test system: OVCAR-4 ovarian
# SW-620 colon = test system: SW-620 colon
# U251 CNS = test system: U251 CNS
# OVCAR-8 ovarian = test system: OVCAR-8 ovarian
# MOLT-4 leukemia = test system: MOLT-4 leukemia
# HOP-62 NSCLC = test system: HOP-62 NSCLC
# SF-539 CNS = test system: SF-539 CNS
# K-562 leukemia = test system: K-562 leukemia
# HCT-15 colon = test system: HCT-15 colon
# HL-60(TB) leukemia = test system: HL-60(TB) leukemia
# NCI-H522 lung = test system: NCI-H522 lung
# HCT-116 colon = test system: HCT-116 colon
# COLO 205 colon = test system: COLO 205 colon
# UO-31 renal = test system: UO-31 renal
# SF-268 CNS = test system: SF-268 CNS
# RPMI-8226 leukemia = test system: RPMI-8226 leukemia
# ACHN renal = test system: ACHN renal
# HT29 colon = test system: HT29 colon
# A549 NSCLC = test system: A549 NSCLC
# SNB-19 CNS = test system: SNB-19 CNS
# OVCAR-5 ovarian = test system: OVCAR-5 ovarian
# RXF 393 renal = test system: RXF 393 renal
# SK-MEL-28 melanoma = test system: SK-MEL-28 melanoma
# PC-3 prostate = test system: PC-3 prostate
# SK-MEL-5 melanoma = test system: SK-MEL-5 melanoma
# HS 578T breast = test system: HS 578T breast
# NCI-H226 lung = test system: NCI-H226 lung
# EKVX NSCLC = test system: EKVX NSCLC
# MALME-3M melanoma = test system: MALME-3M melanoma
# DU-145 prostate = test system: DU-145 prostate
# MDA-MB-231 breast = test system: MDA-MB-231 breast
smiles,measurement,setting,value
C=CCOC(=O)C1=C(C)NC2=N[C@H](CCCCCCCCC)C[C@@H]3CCC1N23 (stereo partly drawn),TGI,IGROV1 ovarian,49.5 µM
same,TGI,HCC-2998 colon,48.4 µM
same,TGI,TK-10 renal,39.4 µM
same,TGI,UACC-62 melanoma,35.6 µM
same,TGI,BT-549 breast,37.6 µM
same,TGI,NCI/ADR-RES ovarian,56 µM
same,TGI,SN12C renal,35.7 µM
same,TGI,UACC-257 melanoma,37.1 µM
same,TGI,MCF7 breast,36.5 µM
same,TGI,OVCAR-3 ovarian,37.5 µM
same,TGI,SR leukemia,> 100 µM
same,TGI,LOX IMVI melanoma,44.9 µM
same,TGI,HOP-92 NSCLC,38 µM
same,TGI,MDA-MB-435,44.5 µM
same,TGI,M14 melanoma,37.6 µM
same,TGI,SF-295 CNS,> 100 µM
same,TGI,CCRF-CEM leukemia,> 100 µM
same,TGI,MDA-N,38.4 µM
same,TGI,NCI-H23 lung,41.8 µM
same,TGI,T-47D breast,60.2 µM
same,TGI,SK-OV-3 ovarian,75.2 µM
same,TGI,CAKI-1 renal,> 100 µM
same,TGI,SNB-75 CNS,83.5 µM
same,TGI,KM12 colon,> 100 µM
same,TGI,786-0 renal,39.3 µM
same,TGI,NCI-H460 lung,72.6 µM
same,TGI,SK-MEL-2 melanoma,36.5 µM
same,TGI,OVCAR-4 ovarian,45.9 µM
same,TGI,SW-620 colon,> 100 µM
same,TGI,U251 CNS,40.5 µM
same,TGI,OVCAR-8 ovarian,> 100 µM
same,TGI,MOLT-4 leukemia,> 100 µM
same,TGI,HOP-62 NSCLC,79 µM
same,TGI,SF-539 CNS,38.1 µM
same,TGI,K-562 leukemia,> 100 µM
same,TGI,HCT-15 colon,56.2 µM
same,TGI,HL-60(TB) leukemia,69.4 µM
same,TGI,NCI-H522 lung,34.7 µM
same,TGI,HCT-116 colon,36 µM
same,TGI,COLO 205 colon,50.9 µM
same,TGI,UO-31 renal,32.5 µM
same,TGI,SF-268 CNS,39.9 µM
same,TGI,RPMI-8226 leukemia,> 100 µM
same,TGI,ACHN renal,44.4 µM
same,TGI,HT29 colon,72.2 µM
same,TGI,A549 NSCLC,> 100 µM
same,TGI,SNB-19 CNS,42 µM
same,TGI,OVCAR-5 ovarian,48.2 µM
same,TGI,RXF 393 renal,36 µM
same,TGI,SK-MEL-28 melanoma,53.6 µM
same,TGI,PC-3 prostate,42.1 µM
same,TGI,SK-MEL-5 melanoma,34.4 µM
same,TGI,HS 578T breast,54.4 µM
same,TGI,NCI-H226 lung,36.6 µM
same,TGI,EKVX NSCLC,53.1 µM
same,TGI,MALME-3M melanoma,35.7 µM
same,TGI,DU-145 prostate,67.8 µM
same,TGI,MDA-MB-231 breast,41.7 µM
